These results are taken from patent publication US20040106647A1, “Modulators of Cdk9 as a therapeutic target in cardiac hypertrophy” (priority 2002, published 2004).

The target of series [1] is T1, Cdk9 (Rattus norvegicus, UniProt Q641Z4).
T1 construct: endogenous in cells; host or cells: neonatal rat ventricular myocytes; immunoprecipitated with polyclonal rabbit anti-Cdk9 and protein A-Sepharose
Kind of series: Immune complex CTD kinase assay (GST-CTD substrate), Cdk9. It counts as biochemical. On the procedure:
(§1) Immune complex kinase assays were performed as described (Yang et al., 1996), using polyclonal rabbit antibody against Cdk7 or Cdk9 together with protein A-Sepharose. Kinase assays were performed by adding 25 μl of 50 mM Tris-HCl [pH 7.4], 10 mM MgCl2, 5 mM dithiothreitol, 2.5 mM MnCl2, 5 μM ATP, 5 μCi of [γ-^32P]ATP, and 200 ng of GST-CTD to the beads and incubating at room temperature for 60 min. The complexes were resolved by SDS-polyacrylamide gel electrophoresis, and CTD phosphorylation was visualized by autoradiography and quantified using a phosphorimager and ImageQuant version 5.2 (Molecular Dynamics). Where indicated, immunoprecipiates were incubated with 50 μg/ml of bovine pancreas ribonuclease A (RNase A; Sigma) for 60 min prior to the CTD kinase assay.
(§2) Next, cells were preincubated with DRB for 2 hr at the concentrations shown, and were assayed for pol II phosphorylation after stimulation with ET-1 for 15 min or the indicated intervals. Immune complexes were treated in vitro with 50 μM DRB and assayed by phosphorylation of the recombinant GST-CTD substrate. […] Based on this effect, 50 μM DRB was added in vitro to cardiac Cdk9 and Cdk7 immune complexes, and assayed for its effect on phosphorylation of the recombinant CTD substrate.

Another series relates to pol II CTD. Kind of series: Western blotting of pol II CTD phosphorylation in cultured ventricular myocytes. The format is cell-based, rat. The settings on record: for hyperphosphorylation of pol II: serum-starved 24 hr, stimulated 15 min, ET-1 0.1 μM, PE 0.1 μM, HB-EGF 1 nM. On the procedure: Western blotting was performed using the identical cell lysates. The following antibodies were used: rabbit antibodies against pol II, Cdk7, Cyclin H, MAT1, CyclinT1, Hsp70, Hsp90 and Cdc37; goat antibody against Cyclin T2a/b; and mouse monoclonal antibodies to the Ser2 and Ser5 CTD phoshopeptides (Patturajan et al., 1998; Herrmann et al., 2001). Protein expression was visualized using horseradish peroxidase-conjugated second antibodies and enhanced chemiluminescence reagents (Amersham Pharmacia Biotech).
(§3) Neonatal ventricular myocytes from 1 to 2 day-old Sprague-Dawley rats were subjected to Percoll gradient centriftigation and differential plating, to enrich for cardiac myocytes and deplete nonmyocytes (Oh et al., 2001). Cells were infected for 6 hr, after overnight culture, at a multiplicity of infection (MOI) of 20, then were cultured in serum-free medium for an additional 24 hr before the addition of agonists. The efficiency of viral gene transfer is >95% under the conditions used. DRB (Sigmna) was dissolved in dimethylsulfoxide (DMSO) and then in culture medium to the desired final concentration in 0.1% (vol/vol) DMSO.
Briefly, ventricular myocytes were analyzed by Western blotting as in Example 1. Ventricular myocytes were serum-starved for 24 hr, stimulated for 15 min with ET-1 (0.1 μM), PE (0.1 μM), HB-EGF (1 nM), or the vehicle, and analyzed by Western blotting with antibody to the pol II CTD. Ventricular myocytes were stimulated with ET-1 for the indicated times.
as §2

Series [2] relates to cardiac myocytes. In words: [3H]uridine incorporation (RNA synthesis) in cardiac myocytes. The format is cell-based, rat. The method, then:
as §3
Cells were incubated for 24 hr with 1 μCi/ml of either precursor, in the absence or presence of ET-1 and [^3H]uridine and [^3H]phenylalanine incorporation was measured. Total RNA was extracted using TRIzol (Invitrogen), for simultaneous extraction of DNA from the samples.
(§4) Hypertrophy was monitored as [^3H]uridine incorporation (FIG. 2F, FIG. 2H; n=4 per group) and [^3H]phenylalanine incorporation (FIG. 2I; n=6 per group), corrected for DNA content. Myocyte size was visualized with eGFP (FIG. 2G, FIG. 2J). Bar, 100 μm.

A further series has as its system cyclin T/Cdk9 complex. Kind of series: Co-precipitation of 7SK snRNA with cyclin T/Cdk9 (RT-PCR of immune complexes). It counts as cell-based, rat. The settings on record: cardiac myocytes treated with ET-1. The method, then: Total RNA was isolated from Cdk9, cyclin T1, cyclin T2, and Cdk7 immune complexes using TRIzol and subjected to DNase I (Invitrogen) for 15 min at room temperature, followed by reverse transcription using antisense oligonucleotides for 7SK snRNA. The PCR primers were: sense, (SEQ. ID. NO. 3) […]; antisense, (SEQ. ID. NO. 4) […]. PCR products were subjected to electrophoresis on 2% agarose gel and stained with ethidium bromide.
ET-1 caused the rapid loss of Cdk9-associated 7SK snRNA, within 15 min. These findings were substantiated using each of three antibodies to the cyclin T/Cdk9 complex. Levels of 7SK RNA in the corresponding total cell lysates were unchanged. […] Thus, hypertrophic signals in cultured cardiac myocytes and the intact heart induce the dissociation of 7SK RNA from endogenous cyclin T/Cdk9. […] Conversely, endogenous cyclin T/Cdk9 was recovered from cardiac lysates using streptavidin-agarose plus a biotinylated 2′-O-methyl (2′-OMe) oligonucleotide complementary to 7SK snRNA (FIG. 3G): this method confirmed independently the dissociation of 7SK snRNA from cardiac cyclin T/Cdk9 for Gq and calcineurin.

The target of series [3] is cyclin dependent kinase 9 (Cdk9) (endogenous, mouse myocardium) (mouse) (UniProt Q99J95). In words: cell-based or functional assay.
Chain of cyclin dependent kinase 9 (Cdk9) (endogenous, mouse myocardium) (mouse) (Q99J95 whole entry): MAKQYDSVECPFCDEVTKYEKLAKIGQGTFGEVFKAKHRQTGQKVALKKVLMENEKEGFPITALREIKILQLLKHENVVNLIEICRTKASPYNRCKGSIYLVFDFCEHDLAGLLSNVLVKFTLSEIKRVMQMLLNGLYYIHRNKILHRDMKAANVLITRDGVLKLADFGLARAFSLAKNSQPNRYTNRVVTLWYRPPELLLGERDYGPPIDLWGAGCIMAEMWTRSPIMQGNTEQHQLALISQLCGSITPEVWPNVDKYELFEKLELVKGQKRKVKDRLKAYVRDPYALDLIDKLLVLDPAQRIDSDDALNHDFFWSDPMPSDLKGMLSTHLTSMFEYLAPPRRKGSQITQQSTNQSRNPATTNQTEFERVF
Series [4] deals with cardiac myocytes. Kind of series: Myocyte size visualized with eGFP. The format is cell-based, rat. The settings on record: DRB pretreatment, ET-1 stimulation. The method, then: as §3, §4
Series [5] addresses Cdk9 (Homo sapiens, UniProt P50750). To be noted: Zhu et al., 1997; cited from earlier work.
Series [6] relates to cardiac myocytes. In words: Myocyte apoptosis by flow cytometry (hypodiploid DNA). It counts as cell-based. The text has this: Myocyte apoptosis was monitored by flow cytometry as hypodiploid DNA, using FITC-conjugated MF20 antibody to sarcomeric myosin heavy chains and propidium iodide in the presence of RNase A (Oh et al., 2001).
The next series deals with T2, Cdk7 (Rattus norvegicus, UniProt P51952).
T2 construct: endogenous in cells; host or cells: neonatal rat ventricular myocytes; immunoprecipitated with polyclonal rabbit anti-Cdk7 and protein A-Sepharose
T2 sequence (P51952 1-329): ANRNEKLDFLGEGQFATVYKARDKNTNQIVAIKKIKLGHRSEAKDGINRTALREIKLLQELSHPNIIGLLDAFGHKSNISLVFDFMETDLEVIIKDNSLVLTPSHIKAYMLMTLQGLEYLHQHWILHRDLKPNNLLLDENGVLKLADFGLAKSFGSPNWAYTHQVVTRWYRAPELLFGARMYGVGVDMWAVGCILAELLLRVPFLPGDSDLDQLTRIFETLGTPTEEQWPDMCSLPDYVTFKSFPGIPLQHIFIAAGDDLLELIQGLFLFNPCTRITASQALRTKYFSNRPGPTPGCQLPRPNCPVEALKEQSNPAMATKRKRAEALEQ
T2 sequence (Q9R1A0 1-323 partner): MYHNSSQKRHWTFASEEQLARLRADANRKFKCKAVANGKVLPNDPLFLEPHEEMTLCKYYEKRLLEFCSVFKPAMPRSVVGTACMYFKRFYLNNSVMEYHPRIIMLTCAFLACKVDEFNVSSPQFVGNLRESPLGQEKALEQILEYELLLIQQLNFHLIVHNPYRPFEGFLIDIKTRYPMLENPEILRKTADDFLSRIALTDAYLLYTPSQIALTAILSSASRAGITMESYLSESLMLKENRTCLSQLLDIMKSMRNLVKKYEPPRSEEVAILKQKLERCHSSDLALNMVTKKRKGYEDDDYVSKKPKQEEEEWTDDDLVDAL
Kind of series: Immune complex CTD kinase assay (GST-CTD substrate), Cdk7. The format is biochemical. The settings on record: 50 μM DRB added in vitro to cardiac immune complexes. On the procedure: as §1, §2

For series [7], the system named is mitogen-activated protein kinases. In words: Phosphorylation of mitogen-activated protein kinases in cultured cardiac myocytes. The format is cell-based, rat. The settings on record: 50 μM DRB.
Where [8] appears, read: 50 μM, cardiac myocytes, [3H]uridine incorporation.
[9] abbreviates: antisense knockdown of 7SK snRNA, 48 hr after transfection, cardiac myocytes.

T1 sequence (Q641Z4 whole entry): as the sequence (Q99J95 whole entry) above
Chain of Cdk9 (Homo sapiens, UniProt P50750) (P50750 whole entry, species assumed): as the sequence (Q99J95 whole entry) above, with T17S, K37R, Q40K, K258N, F262Y counted along it
Chain of Cdk9 (Homo sapiens, UniProt P50750) (O60563 whole entry partner, species assumed): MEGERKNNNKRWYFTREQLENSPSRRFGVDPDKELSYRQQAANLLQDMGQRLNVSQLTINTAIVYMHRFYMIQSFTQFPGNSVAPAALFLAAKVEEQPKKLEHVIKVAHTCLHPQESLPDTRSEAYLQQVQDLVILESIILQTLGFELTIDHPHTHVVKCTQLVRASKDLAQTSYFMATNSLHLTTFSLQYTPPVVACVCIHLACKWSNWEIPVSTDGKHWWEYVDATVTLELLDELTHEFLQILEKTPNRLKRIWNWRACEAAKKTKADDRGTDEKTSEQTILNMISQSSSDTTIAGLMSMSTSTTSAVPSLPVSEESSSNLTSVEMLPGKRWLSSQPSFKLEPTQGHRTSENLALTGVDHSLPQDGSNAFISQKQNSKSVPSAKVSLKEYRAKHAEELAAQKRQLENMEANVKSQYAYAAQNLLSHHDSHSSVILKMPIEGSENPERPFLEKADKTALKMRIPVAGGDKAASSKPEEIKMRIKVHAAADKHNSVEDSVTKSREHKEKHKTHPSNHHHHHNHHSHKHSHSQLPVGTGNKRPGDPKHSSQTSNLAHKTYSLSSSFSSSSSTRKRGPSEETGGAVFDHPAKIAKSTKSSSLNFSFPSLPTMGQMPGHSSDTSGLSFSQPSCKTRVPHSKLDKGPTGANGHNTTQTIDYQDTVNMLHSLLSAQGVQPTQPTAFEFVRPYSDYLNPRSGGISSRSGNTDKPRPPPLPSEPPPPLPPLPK

Regarding endothelin-1 [ET-1], the “Cdk9 CTD kinase activity” value with Cdk9 [1] (ventricular myocytes stimulated with ET-1 for 15 min) is listed as “increased”. Moreover, in the series with pol II CTD (ET-1 time course, peak at 15 min, from 4% at baseline), the “increase in proportion of pol IIo” value is listed as 9 fold. Further, the “maximum proportion of pol IIo” value in the series on pol II CTD (ET-1 time course, peak at 15 min, baseline 4%) came to 36%. In addition, in the series with pol II CTD (phospho-epitope specific antibodies, Ser2 vs Ser5), the “preferred CTD heptad residue phosphorylated” value was “preferentially induce phosphorylation at Ser2”. The “hyperphosphorylation of pol II” value with pol II CTD was “induced”. The “augmentation of [3H]uridine incorporation” value in the series with cardiac myocytes [2] (control eGFP-infected myocytes, 24 hr) is “one-third”. Further, in the series on cyclin T/Cdk9 complex, the “time to loss of Cdk9-associated 7SK snRNA” value was at most 15 min.
In [3], “mouse cyclin T1 (cardiac-specific αMHC-cyclin T1 transgene) (from UniProt Q9QWV9 1-724)” displayed a Cdk9 activity (immune complex CTD kinase assay), high-expression transgenic line of 6 fold; a Cdk9 activity (immune complex CTD kinase assay), low-expression transgenic line of 2 fold; a baseline Cdk9 activity (immune complex kinase assay), cyclin T1 mice versus wild-type littermates of 4.4 fold.
As for `OC[C@H]1O[C@@H](n2cnc3cc(Cl)c(Cl)cc32)[C@H](O)[C@@H]1O` [DRB, 5,6-dichloro-1-beta-D-ribofuranosylbenzimidazole], in the series with cardiac myocytes [4], the “ET-1-associated increase in myocyte size” value is listed as “blocked”. Further, the “selectivity among CTD kinases” value at Cdk9 [5] is given as “selective activity against Cdk9”. Also, the “Cdk9 activity (phosphorylation of recombinant CTD substrate)” value at Cdk9 [1] (50 μM DRB added in vitro to cardiac immune complexes) is given as “blocked Cdk9 activity almost completely”. Also, in the series with pol II CTD (50 μM DRB, preincubated 2 hr, ET-1 15 min, cultured cardiac myocytes), the “ET-1-induced pol II phosphorylation” value is “inhibited”. Besides, the apoptosis entry in the series on cardiac myocytes [6] (conditions sufficient to block ET-1 induction of pol II phosphorylation almost completely) was “no increase in apoptosis”. For the same molecule, the cell death entry in the series with cardiac myocytes [6] (higher concentrations that block RNA synthesis more completely) was “did induce cell death”. In addition, in the series with cardiac myocytes [2] (setting [8]), the “inhibition of ET-1 induced RNA synthesis” value is reported as around 80% and the “inhibition of basal RNA synthesis” value is on record as around 80%. Besides, on Cdk7, the “Cdk7 activity (phosphorylation of recombinant CTD substrate)” value is recorded as “little or no effect”. Moreover, in [7], the “phosphorylation of mitogen-activated protein kinases downstream of ET-1” value is “without impairing”.
In the case of “antisense 7SK: antisense phosphorothioate oligonucleotide, SEQ. ID. NO. 1, 5′-CCTTGAGAGCTTGTTTGG AGG-3′, against 7SK snRNA (antisense CCTTGAGAGCTTGTTTGGAGG; all phosphorothioate, sugars by position and methylation of C not given here)”, in the series with Cdk9 [1] (setting [9]), the “endogenous Cdk9 activity” value is “markedly increased”. In addition, in the series with cardiac myocytes [2] (setting [9]), the uridine incorporation result was “as large an increase in uridine incorporation as did ET-1 itself”.
Take `CNC[C@H](O)c1cccc(O)c1` [PE, phenylephrine]: the “hyperphosphorylation of pol II” value in the series with pol II CTD is “induced”.

B1: RNase A: bovine pancreas ribonuclease A (Sigma) (protein, UniProt P61823 27-150, looked up)
Ribonuclease pancreatic: KETAAAKFERQHMDSSTSAASSSNYCNQMMKSRNLTKDRCKPVNTFVHESLADVQAVCSQKNVACKNGQTNCYQSYSTMSITDCRETGSSKYPNCAYKTTQANKHIIVACEGNPYVPVHFDASV
Take B1: in the series with Cdk9 [1] (RNase A 50 μg/ml 60 min, control cells, GST-CTD substrate), the “Cdk9 kinase activity after treatment of immune complexes” value was “levels even higher than did ET-1”.

B2: heparin-binding epidermal growth factor (protein, UniProt Q99075 63-148, looked up)
Heparin-binding EGF-like …: DLQEADLDLLRVTLSSKPQALATPNKEEHGKRKKKGKGLGKKRDPCLRKYKDFCIHGECKYVKELRAPSCICHPGYHGERCHGLSL
notes: member of the EGF family, secreted mediator of growth signals in the heart
In the case of B2, the “hyperphosphorylation of pol II” value with pol II CTD is “induced”.
